Results on 28 compounds are retold here after patent US8853424B2 (Japan Science and Technology Agency, priority 2008, dated 2014).

One assay relates to transglutaminase (TGase). The assay is described as follows: Measurement of TG (TGase inhibitory activity, monodansyl cadaverine / N,N-dimethylcasein fluorescence, FDSS 3000). It is filed as biochemical. Summed up: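 Compound (1 μL of 10 mM stock) added to 0.1 mL reaction: 100 mM HEPES-NaOH pH 7.5, 1 mM CaCl2, 20 μM monodansyl cadaverine, 0.05 mg/mL N,N-dimethylcasein, 5 μg/mL TGase. Rate of fluorescence change at 340 nm measured; DMSO control set to 100; TG50 is the concentration halving activity.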

Assay [1] deals with Truncated N-terminal huntington 150 Q-EGFP-Neuron 2a cells. The assay is described as follows: Measurement of x-Fold (polyglutamine aggregation inhibitory activity). The format is cell-based. The protocol: In the present invention, the polyglutamine aggregation inhibitory activity (x-Fold) can be measured, for example, by the method described in the Example.
The number of the aggregated cells, and the total number of cells were counted by Array Scan V T1 (manufactured by Cellomics, Pittuburg, USA), and the ratio of the aggregated cells to the total number of cells was determined (x-Fold). […]

Where [2] appears, read: TGase activity with compound (10 mM, 1 μL in 0.1 ml enzyme reaction solution), DMSO control taken as 100.
Where [3] appears, read: TGase inhibitory activity value, Table 1.
Where [4] appears, read: polyglutamine aggregation inhibitory activity, Table 1.
The mark [5] stands for this setting: ratio of aggregated cells to total number of cells, compound 20 μM, 20 hr, almost 1 without compound, smaller = stronger inhibition.

Take `NC(COB(c1ccccc1)c1ccc(COCc2ccc(B(OCC(N)Cc3ccccc3)c3ccccc3)cc2)cc1)Cc1ccccc1` (centres unmarked) [Example 205, bis(4,4′-(phenyl 2-amino-2-benzylethoxyboryl)benzyl)ether]: the “TGase activity remaining (% of DMSO control = 100)” value in the assay with transglutaminase (TGase) (setting [2]) and with transglutaminase (TGase) (setting [3]) was 47 throughout. In addition, the x-Fold in assay [1] (setting [4]) and in assay [1] (setting [5]) was 0.80 each time.

Take `CN(C)CCOB(c1ccccc1)c1cccc(COCc2cccc(B(OCCN(C)C)c3ccccc3)c2)c1` [Example 206, bis(3,3′-(phenyldimethylaminoethoxyboryl)benzyl)ether]: the “TGase activity remaining (% of DMSO control = 100)” value in the assay with transglutaminase (TGase) (setting [2]) stood at 34; with transglutaminase (TGase) (TGase inhibitory activity value, Table 1, listed as 3107), 34. The x-Fold came to 1.14 in assay [1] (polyglutamine aggregation inhibitory activity, Table 1, listed as 3107) and 1.14 in assay [1] (setting [5]).

Turning to `Cc1ccc(B(OC(CN)c2ccccc2)c2ccc(C)c(Cl)c2)cc1Cl` (centres unmarked) [Example 209, di(3-chloro-4-methylphenyl)1-phenyl 2-aminoethylborinate], the “TGase activity remaining (% of DMSO control = 100)” value with transglutaminase (TGase) (setting [2]) and with transglutaminase (TGase) (setting [3]) was 1 throughout. The x-Fold in assay [1] (setting [4]) and in assay [1] (setting [5]) was 0.98 throughout.

`c1ccc(B(OB(c2ccccc2)c2ccccc2)c2ccccc2)cc1` [Example 217, diphenylborinic acid anhydride]: the “TGase activity remaining (% of DMSO control = 100)” value in the assay on transglutaminase (TGase) (setting [2]) and in the assay with transglutaminase (TGase) (setting [3]) was 118 each time. Further, the x-Fold in assay [1] (setting [4]) and in assay [1] (setting [5]) was 0.94 in each case.

`O=C(OB(c1ccccc1)c1ccccc1)c1ccccn1` [Example 218, diphenyl(picolinate-O,N)borane]: the “TGase activity remaining (% of DMSO control = 100)” value in the assay on transglutaminase (TGase) (setting [2]) and in the assay with transglutaminase (TGase) (setting [3]) was 90 each time. Moreover, the x-Fold in assay [1] (setting [4]) and in assay [1] (setting [5]) was 0.97 each time.

With `Nc1ccccc1C(=O)OB(c1ccccc1)c1ccccc1` [Example 219, diphenyl(2-aminophenyl carboxylate-O,N)borane], the “TGase activity remaining (% of DMSO control = 100)” value in the assay with transglutaminase (TGase) (setting [2]) and in the assay with transglutaminase (TGase) (setting [3]) was 91 each time. Also, the x-Fold in assay [1] (setting [4]) and in assay [1] (setting [5]) was 0.88 in each case.

For `Cc1ccc(B(OC(=O)c2ccccn2)c2ccc(C)c(Cl)c2)cc1Cl` [Example 221, di(3-chloro-4-methylphenyl)(2-pyridine carboxylate-O,N)borane], the “TGase activity remaining (% of DMSO control = 100)” value in the assay with transglutaminase (TGase) (setting [2]) stood at 73. Moreover, the x-Fold in assay [1] (setting [5]) came out at 0.94.

Consider `NC(c1ccccc1)C(OB(c1ccccc1)c1ccccc1)c1ccccc1` (centres unmarked) [Example 224, diphenyl 1-(2-aminobenzyl) 1-phenylmethylborinate], for which the “TGase activity remaining (% of DMSO control = 100)” value in the assay with transglutaminase (TGase) (setting [2]) and in the assay with transglutaminase (TGase) (setting [3]) was 112 throughout. Besides, the x-Fold in assay [1] (setting [4]) and in assay [1] (setting [5]) was 0.89 in each case.

With `CCCCC(N)C(=O)OB(c1ccccc1)c1ccccc1` (centres unmarked) [Example 226, diphenyl(2-aminohexanecarboxylate-O,N)borane], the “TGase activity remaining (% of DMSO control = 100)” value in the assay on transglutaminase (TGase) (setting [2]) and in the assay on transglutaminase (TGase) (setting [3]) was 97 each time. The x-Fold in assay [1] (setting [4]) and in assay [1] (setting [5]) was 0.94 throughout.

In the case of `CCCCC(N)C(=O)OB(c1ccc(C)c(Cl)c1)c1ccc(C)c(Cl)c1` (centres unmarked) [Example 227, di(3-chloro-4-methylphenyl)(norloysinate-O,N)borane], the “TGase activity remaining (% of DMSO control = 100)” value in the assay with transglutaminase (TGase) (setting [2]) was found to be 110; with transglutaminase (TGase) (TGase inhibitory activity value, Table 1, listed as 4130), 110. Further, the x-Fold in assay [1] (polyglutamine aggregation inhibitory activity, Table 1, listed as 4130) turned out to be 0.99; in assay [1] (setting [5]), 0.99.

With `CCC(N)COB(c1ccccc1)c1ccccc1` (centres unmarked) [Example 228, diphenyl 2-aminobutylborinate], the “TGase activity remaining (% of DMSO control = 100)” value with transglutaminase (TGase) (setting [2]) and in the assay on transglutaminase (TGase) (setting [3]) was 99 throughout. For the same compound, the x-Fold in assay [1] (setting [4]) and in assay [1] (setting [5]) was 0.98 throughout.

Regarding `OB(c1ccc(Cl)c(F)c1)c1ccc(Cl)c(F)c1` [Example 231, di(3-fluoro-4-chlorophenyl)borinic acid], the “TGase activity remaining (% of DMSO control = 100)” value in the assay with transglutaminase (TGase) (setting [2]) worked out at 94; in the assay on transglutaminase (TGase) (TGase inhibitory activity value, Table 1, listed as 4140), 94. In addition, the x-Fold came out at 1.01 in assay [1] (polyglutamine aggregation inhibitory activity, Table 1, listed as 4140) and 1.01 in assay [1] (setting [5]).

Consider `CN(C)CCOB(c1ccc(C(F)(F)F)cc1)c1ccc(C(F)(F)F)cc1` [Example 233], for which the “TGase activity remaining (% of DMSO control = 100)” value in the assay on transglutaminase (TGase) (setting [2]) was determined as 112; in the assay with transglutaminase (TGase) (TGase inhibitory activity value, Table 1, listed as 4142) it was 112. In addition, the x-Fold in assay [1] (polyglutamine aggregation inhibitory activity, Table 1, listed as 4142) is on record as 1.12; in assay [1] (setting [5]), 1.12.

Take `NCC(CN)OB(c1ccc(Cl)c(F)c1)c1ccc(Cl)c(F)c1` [Example 235]: the “TGase activity remaining (% of DMSO control = 100)” value with transglutaminase (TGase) (setting [2]) and in the assay on transglutaminase (TGase) (setting [3]) was 80 each time. For the same compound, the x-Fold in assay [1] (setting [4]) and in assay [1] (setting [5]) was 1.03 in each case.

`CC(C)(N)COB(c1ccc(Cl)c(F)c1)c1ccc(Cl)c(F)c1` [Example 236, di(4-chloro-3-fluorophenyl) 2-amino-2-methyl-propyl-borinate]: the “TGase activity remaining (% of DMSO control = 100)” value in the assay on transglutaminase (TGase) (setting [2]) and in the assay on transglutaminase (TGase) (setting [3]) was 87 throughout. In addition, the x-Fold in assay [1] (setting [4]) and in assay [1] (setting [5]) was 1.10 each time.

As for `Fc1cc(B(OCCNc2ccccc2)c2ccc(Cl)c(F)c2)ccc1Cl` [Example 237, di(4-chloro-3-fluorophenyl) 2-phenylaminoethyl borinate], the “TGase activity remaining (% of DMSO control = 100)” value with transglutaminase (TGase) (setting [2]) and in the assay with transglutaminase (TGase) (setting [3]) was 88 each time. Besides, the x-Fold in assay [1] (setting [4]) and in assay [1] (setting [5]) was 1.15 in each case.

On to `CC(O)C(N)COB(c1ccc(Cl)c(F)c1)c1ccc(Cl)c(F)c1` (centres unmarked) [Example 238, di(4-chloro-3-fluorophenyl) 2-amino-3-hydroxybutyl borinate], for which the “TGase activity remaining (% of DMSO control = 100)” value in the assay with transglutaminase (TGase) (setting [2]) and in the assay on transglutaminase (TGase) (setting [3]) was 87 in each case. Further, the x-Fold in assay [1] (setting [4]) and in assay [1] (setting [5]) was 1.07 in each case.

Regarding `c1ccc(B(OCCN2CCN(CCOB(c3ccccc3)c3ccccc3)CC2)c2ccccc2)cc1` [Example 239, bis(diphenyl piperazino-O,O-ethoxyborane)], the “TGase activity remaining (% of DMSO control = 100)” value in the assay on transglutaminase (TGase) (setting [2]) is 126. Also, the x-Fold in assay [1] (setting [5]) is listed as 0.94.

On to `OB(c1cccc(Cl)c1)c1cccc(Cl)c1` [Example 241, di(3-chlorophenyl)borinic acid], for which the “TGase activity remaining (% of DMSO control = 100)” value with transglutaminase (TGase) (setting [2]) stood at 67. In addition, in assay [1] (setting [5]), the x-Fold worked out at 1.10.

`Cc1ccc(Cl)cc1B(OCC1CCCCN1)c1cc(Cl)ccc1C` (centres unmarked) [Example 242, di(5-chloro-2-methylphenyl) 2-piperidinomethylborinate]: the “TGase activity remaining (% of DMSO control = 100)” value with transglutaminase (TGase) (setting [2]) is 98. For the same compound, the x-Fold in assay [1] (setting [5]) is listed as 1.17.

Turning to `NCCCC(N)C(=O)OB(c1ccccc1)c1ccccc1` (centres unmarked) [Example 245, diphenyl(ornithine-O,N)borane], the “TGase activity remaining (% of DMSO control = 100)” value with transglutaminase (TGase) (setting [2]) is listed as 94; with transglutaminase (TGase) (TGase inhibitory activity value, Table 1, listed as 921) it was 94. For the same compound, the x-Fold was determined as 0.91 in assay [1] (polyglutamine aggregation inhibitory activity, Table 1, listed as 921) and 0.91 in assay [1] (setting [5]).

As for `CCCCNCCOB(c1cc(Cl)ccc1C)c1cc(Cl)ccc1C` [Example 246, di(5-chloro-2-methylphenyl) 2-butylaminoethylborinate], the “TGase activity remaining (% of DMSO control = 100)” value in the assay on transglutaminase (TGase) (setting [2]) is given as 94. The x-Fold in assay [1] (setting [5]) is listed as 0.67.

On to `Cc1ccc(B(OCCC2CCCCN2)c2ccc(C)c(Cl)c2)cc1Cl` (centres unmarked) [Example 248], for which the “TGase activity remaining (% of DMSO control = 100)” value with transglutaminase (TGase) (setting [2]) was determined as 103. Besides, the x-Fold in assay [1] (setting [5]) is 0.87.

Take `Cc1ccc(B(O)c2ccc(Oc3ccc(B(O)c4ccc(C)c(Cl)c4)cc3)cc2)cc1Cl` [Example 251, bis(3-chloro-4-methylphenyl hydroxyborylphenyl)ether]: the “TGase activity remaining (% of DMSO control = 100)” value in the assay with transglutaminase (TGase) (setting [2]) was determined as 121. The x-Fold in assay [1] (setting [5]) is 0.83.

With `NCC(=O)OB(c1ccccc1)c1ccccc1` [Example 254, diphenyl(glycinate-O,N)borane], the “TGase activity remaining (% of DMSO control = 100)” value in the assay with transglutaminase (TGase) (setting [2]) and in the assay with transglutaminase (TGase) (setting [3]) was 101 in each case. In addition, the x-Fold in assay [1] (setting [4]) and in assay [1] (setting [5]) was 0.95 throughout.

On to `O=C(O)CC1[NH2+][B-](c2ccccc2)(c2ccccc2)OC1=O` (centres unmarked) [Example 257], for which the “TGase activity remaining (% of DMSO control = 100)” value with transglutaminase (TGase) (setting [2]) and in the assay on transglutaminase (TGase) (setting [3]) was 103 throughout. The x-Fold in assay [1] (setting [4]) and in assay [1] (setting [5]) was 0.98 in each case.

Consider `CC(C)CC(N)C(=O)OB(c1ccccc1)c1ccccc1` (centres unmarked) [Example 261, diphenyl(leucinate-O,N)borane], for which the “TGase activity remaining (% of DMSO control = 100)” value with transglutaminase (TGase) (setting [2]) and in the assay on transglutaminase (TGase) (setting [3]) was 109 in each case. The x-Fold in assay [1] (setting [4]) and in assay [1] (setting [5]) was 0.89 each time.

For `CC(O)C(N)C(=O)OB(c1ccccc1)c1ccccc1` (centres unmarked) [Example 265, diphenyl(threoninate-O,N)borane], the “TGase activity remaining (% of DMSO control = 100)” value with transglutaminase (TGase) (setting [2]) and in the assay with transglutaminase (TGase) (setting [3]) was 112 throughout. Further, the x-Fold in assay [1] (setting [4]) and in assay [1] (setting [5]) was 0.94 throughout.
